Measurements published in ChEMBL document CHEMBL4680314, “Discovery of potent glycogen synthase kinase 3/cholinesterase inhibitors with neuroprotection as potential therapeutic agent for Alzheimer's disease” (Bioorg Med Chem, 2021).
Activity calls are given as the source filed them. No cut-off for these calls is given here.

What was measured:
Acetylcholinesterase = Acetylcholinesterase (Homo sapiens, UniProt P22303); assay: Inhibition of human recombinant AChE expressed in HEK293 cells using acetylthiocholine iodide as substrate incubated for 10 mins by Ellman's method; type: cell-based
Cholinesterase = Cholinesterase (Homo sapiens, UniProt P06276); assay: Inhibition of human BChE using butyrylthiocholineiodide as substrate incubated for 10 mins by Ellman's method
[1] = Half life in Sprague-Dawley rat at 10 mg/kg, po measured upto 24 hrs by LC-MS/MS analysis; type: ADME, organism-based; conditions: in vivo
[2] = Tmax in Sprague-Dawley rat at 10 mg/kg, po measured upto 24 hrs by LC-MS/MS analysis; type: ADME, organism-based; conditions: in vivo
[3] = Cmax in Sprague-Dawley rat at 10 mg/kg, po measured upto 24 hrs by LC-MS/MS analysis; type: ADME, organism-based; parameters: route oral, dose 10 mg/kg, time <=24; conditions: in vivo
[4] = AUC (0 to 24 hrs) in Sprague-Dawley rat at 10 mg/kg, po measured upto 24 hrs by LC-MS/MS analysis; type: ADME, organism-based; parameters: route oral, dose 10 mg/kg, time <=24; conditions: in vivo
[5] = AUC (0 to infinity) in Sprague-Dawley rat at 10 mg/kg, po by LC-MS/MS analysis; type: ADME, organism-based; parameters: route oral, time infinity, dose 10 mg/kg; conditions: in vivo
[6] = Volume of distribution in Sprague-Dawley rat at 10 mg/kg, po measured upto 24 hrs by LC-MS/MS analysis; type: ADME, organism-based; conditions: in vivo
[7] = MRT (0 to t) in Sprague-Dawley rat at 10 mg/kg, po measured upto 24 hrs by LC-MS/MS analysis; type: ADME, organism-based; conditions: in vivo
[8] = Clearance in Sprague-Dawley rat at 10 mg/kg, po measured upto 24 hrs by LC-MS/MS analysis; type: ADME, organism-based; conditions: in vivo
[9] = Oral bioavailability in Sprague-Dawley rat at 10 mg/kg measured upto 24 hrs by LC-MS/MS analysis; type: ADME, organism-based; conditions: in vivo
[10] = Half life in Sprague-Dawley rat at 10 mg/kg, iv measured upto 24 hrs by LC-MS/MS analysis; type: ADME, organism-based; conditions: in vivo
[11] = Tmax in Sprague-Dawley rat at 10 mg/kg, iv measured upto 24 hrs by LC-MS/MS analysis; type: ADME, organism-based; conditions: in vivo
[12] = Cmax in Sprague-Dawley rat at 10 mg/kg, iv measured upto 24 hrs by LC-MS/MS analysis; type: ADME, organism-based; parameters: route intravenous, dose 10 mg/kg, time <=24; conditions: in vivo
[13] = AUC (0 to 24 hrs) in Sprague-Dawley rat at 10 mg/kg, iv measured upto 24 hrs by LC-MS/MS analysis; type: ADME, organism-based; parameters: route intravenous, dose 10 mg/kg, time <=24; conditions: in vivo
[14] = AUC (0 to infinity) in Sprague-Dawley rat at 10 mg/kg, iv by LC-MS/MS analysis; type: ADME, organism-based; parameters: time infinity, route intravenous, dose 10 mg/kg; conditions: in vivo
[15] = Volume of distribution in Sprague-Dawley rat at 10 mg/kg, iv measured upto 24 hrs by LC-MS/MS analysis; type: ADME, organism-based; conditions: in vivo
[16] = MRT (0 to t) in Sprague-Dawley rat at 10 mg/kg, iv measured upto 24 hrs by LC-MS/MS analysis; type: ADME, organism-based; conditions: in vivo
[17] = Clearance in Sprague-Dawley rat at 10 mg/kg, iv measured upto 24 hrs by LC-MS/MS analysis; type: ADME, organism-based; conditions: in vivo
in vitro = conditions: PAMPA
Description: Effective permeability of compound in PBS/EtOH buffer (7:3) at 25 ug/ml incubated for 18 hrs by PAMPA-BBB assay

[18] = molecular target: Glycogen synthase kinase-3 beta (Homo sapiens, UniProt P49841); assay: biochemical
Description: Inhibition of recombinant human N-terminal His6-tagged GSK3beta H350L mutant expressed in baculovirus infected Sf21 cells using prephosphorylated polypeptide as substrate incubated for 1 min followed by substrate addition and measured after 30 mins by Kinase-Glo luminescence assay

BV-2 [19] = assay: Anti-inflammatory activity in mouse BV-2 cells assessed as reduction in LPS-induced ROS production at 3 uM incubated for 1 hr followed by LPS stimulation and measured after 24 hrs by DCFH-DA staining based inverted fluorescence microscopy; type: functional, cell-based; conditions: time 25.0 hrs
[20] = Drug uptake in mouse BV-2 cells at 25 uM incubated for 1 hr measured per million cells by LC-MS/MS analysis; type: ADME, cell-based; conditions: bv-2, 1 h
BV-2 [21] = assay: Anti-inflammatory activity in mouse BV-2 cells assessed as reduction in LPS-induced TNFalpha production incubated for 1 hr followed by LPS stimulation and measured after 24 hrs by ELISA; type: functional, cell-based; conditions: dose 2-8 µM, time 25.0 hrs
BV-2 [22] = assay: Anti-inflammatory activity in mouse BV-2 cells assessed as reduction in LPS-induced IL-1beta production incubated for 1 hr followed by LPS stimulation and measured after 24 hrs by ELISA; type: functional, cell-based; conditions: dose 2-8 µM, time 25.0 hrs
BV-2 [23] = assay: Anti-inflammatory activity in mouse BV-2 cells assessed as reduction in LPS-induced TNFalpha expression at 4 uM incubated for 1 hr followed by LPS stimulation and measured after 24 hrs by immunofluorescence based laser confocal microscopy; type: functional, cell-based; conditions: time 25.0 hrs
BV-2 [24] = assay: Anti-inflammatory activity in mouse BV-2 cells assessed as reduction in LPS-induced IL-1beta expression at 4 uM incubated for 1 hr followed by LPS stimulation and measured after 24 hrs by immunofluorescence based laser confocal microscopy; type: functional, cell-based; conditions: time 25.0 hrs
[25] = Half life in Sprague-Dawley rat at 5 mg/kg, iv measured upto 24 hrs by LC-MS/MS analysis; type: ADME, organism-based; conditions: in vivo
[26] = Tmax in Sprague-Dawley rat at 5 mg/kg, iv measured upto 24 hrs by LC-MS/MS analysis; type: ADME, organism-based; conditions: in vivo
[27] = Cmax in Sprague-Dawley rat at 5 mg/kg, iv measured upto 24 hrs by LC-MS/MS analysis; type: ADME, organism-based; parameters: route intravenous, dose 5 mg/kg, time <=24; conditions: in vivo
[28] = AUC (0 to 24 hrs) in Sprague-Dawley rat at 5 mg/kg, iv measured upto 24 hrs by LC-MS/MS analysis; type: ADME, organism-based; parameters: route intravenous, dose 5 mg/kg, time <=24; conditions: in vivo
[29] = AUC (0 to infinity) in Sprague-Dawley rat at 5 mg/kg, iv by LC-MS/MS analysis; type: ADME, organism-based; parameters: route intravenous, dose 5 mg/kg; conditions: in vivo
[30] = Volume of distribution in Sprague-Dawley rat at 5 mg/kg, iv measured upto 24 hrs by LC-MS/MS analysis; type: ADME, organism-based; conditions: in vivo
[31] = MRT (0 to t) in Sprague-Dawley rat at 5 mg/kg, iv measured upto 24 hrs by LC-MS/MS analysis; type: ADME, organism-based; conditions: in vivo
[32] = Clearance in Sprague-Dawley rat at 5 mg/kg, iv measured upto 24 hrs by LC-MS/MS analysis; type: ADME, organism-based; conditions: in vivo
[33] = Plasma concentration in ICR mouse at 15 mg/kg, po measured after 90 mins by LC-MS/MS analysis; type: ADME, organism-based
[34] = Ratio of drug level in ICR mouse brain to blood at 15 mg/kg, po measured after 90 mins by LC-MS/MS analysis; type: ADME, organism-based; conditions: 1.5 h
[35] = Toxicity in ICR mouse assessed as reduction in body weight at 15 mg/kg, po; type: organism-based; conditions: in vivo
[36] = Toxicity in ICR mouse model of scopolamine-induced cognitive dysfunction assessed as effect on locomotor activity by measuring effect on swimming speed at 15 mg/kg, po by Morris water maze test; type: organism-based; conditions: in vivo
BV-2 [37] = assay: Cytotoxicity against mouse BV-2 cells assessed as effect on cell morphology; type: cell-based

Glycogen synthase kinase-3 beta, sequence (P49841 whole entry): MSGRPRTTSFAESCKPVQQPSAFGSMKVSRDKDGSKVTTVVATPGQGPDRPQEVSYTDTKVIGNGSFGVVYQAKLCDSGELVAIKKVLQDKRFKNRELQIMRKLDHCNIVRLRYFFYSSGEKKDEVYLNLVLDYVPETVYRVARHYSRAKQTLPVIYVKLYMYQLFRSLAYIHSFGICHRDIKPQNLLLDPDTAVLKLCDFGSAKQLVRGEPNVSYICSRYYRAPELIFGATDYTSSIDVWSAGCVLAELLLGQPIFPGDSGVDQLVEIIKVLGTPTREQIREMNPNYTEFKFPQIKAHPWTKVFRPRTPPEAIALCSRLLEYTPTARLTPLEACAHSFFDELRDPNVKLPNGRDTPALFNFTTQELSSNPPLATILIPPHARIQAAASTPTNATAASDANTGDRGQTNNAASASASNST
Cholinesterase, sequence (P06276 whole entry): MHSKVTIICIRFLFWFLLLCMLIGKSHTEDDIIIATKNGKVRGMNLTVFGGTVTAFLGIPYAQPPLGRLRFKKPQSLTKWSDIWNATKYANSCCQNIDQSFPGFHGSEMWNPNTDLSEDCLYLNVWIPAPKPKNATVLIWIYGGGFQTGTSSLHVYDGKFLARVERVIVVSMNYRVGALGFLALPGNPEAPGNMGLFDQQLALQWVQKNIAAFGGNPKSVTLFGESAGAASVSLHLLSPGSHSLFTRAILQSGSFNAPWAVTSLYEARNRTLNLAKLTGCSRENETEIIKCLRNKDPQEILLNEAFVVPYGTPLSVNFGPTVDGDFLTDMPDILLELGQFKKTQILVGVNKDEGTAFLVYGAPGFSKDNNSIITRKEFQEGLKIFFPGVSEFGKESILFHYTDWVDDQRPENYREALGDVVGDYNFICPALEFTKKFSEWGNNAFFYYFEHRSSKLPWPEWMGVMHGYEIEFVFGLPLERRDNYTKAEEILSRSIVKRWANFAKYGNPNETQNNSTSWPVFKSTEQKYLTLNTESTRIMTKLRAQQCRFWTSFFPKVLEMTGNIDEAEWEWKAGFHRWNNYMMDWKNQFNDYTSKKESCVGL
Acetylcholinesterase, sequence (P22303 whole entry): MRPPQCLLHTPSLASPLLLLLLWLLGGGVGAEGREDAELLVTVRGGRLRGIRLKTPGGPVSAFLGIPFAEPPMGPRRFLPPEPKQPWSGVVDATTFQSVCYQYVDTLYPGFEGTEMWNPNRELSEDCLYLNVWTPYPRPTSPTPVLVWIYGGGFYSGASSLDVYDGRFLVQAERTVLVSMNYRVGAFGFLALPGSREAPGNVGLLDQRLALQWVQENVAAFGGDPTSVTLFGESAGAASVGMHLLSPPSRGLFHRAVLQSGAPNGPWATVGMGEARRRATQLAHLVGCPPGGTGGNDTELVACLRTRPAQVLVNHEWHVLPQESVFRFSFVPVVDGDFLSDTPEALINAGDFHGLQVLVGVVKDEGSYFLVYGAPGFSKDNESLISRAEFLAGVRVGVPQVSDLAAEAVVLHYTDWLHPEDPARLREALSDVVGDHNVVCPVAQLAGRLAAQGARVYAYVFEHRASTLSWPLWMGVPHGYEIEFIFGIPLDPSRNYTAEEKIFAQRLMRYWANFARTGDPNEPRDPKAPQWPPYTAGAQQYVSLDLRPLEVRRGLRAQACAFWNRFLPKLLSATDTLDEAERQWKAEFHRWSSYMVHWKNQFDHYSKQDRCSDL

## NC(=O)c1sc(-c2ccnc(NC(=O)C3CC3)c2)nc1OCC1CCN(Cc2ccccc2)CC1
Acetylcholinesterase
  IC50: 1500 nM
Cholinesterase
  IC50: 12700 nM
[1]
  half-life: 4.5 h
[2]
  Tmax: 4.5 h
[3]
  Cmax: 67.3 ng/mL
[4]
  AUC(0-t): 622 ng·h/mL
[5]
  AUC(0-inf): 688 ng·h/mL
[6]
  Vd: 93.6 L/kg
[7]
  MRT last at 24 h: 8.1 h
[8]
  CL/F: 267 mL/min/kg
[9]
  bioavailability: 40.7%
[10]
  half-life: 6.7 h
[11]
  Tmax: 6 min
[12]
  Cmax: 507 ng/mL
[13]
  AUC(0-t): 1540 ng·h/mL
[14]
  AUC(0-inf): 1820 ng·h/mL
[15]
  Vd: 55.2 L/kg
[16]
  MRT last at 24 h: 9.1 h
[17]
  clearance: 104 mL/min/kg
In vitro
  Papp at 18 h, 25 ug/ml: 6.4 ×10⁻⁶ cm/s
[18]
  IC50: 94 nM

## NC(=O)c1sc(-c2ccnc(NC(=O)C3CC3)c2)nc1OCCCC1CCN(Cc2ccccc2)CC1
Acetylcholinesterase
  IC50: 380 nM
Cholinesterase
  IC50: 20600 nM
BV-2 [19]
  Activity: Active
[20]
  Drug uptake: 103 ng
BV-2 [21]
  Activity: Dose-dependent effect
BV-2 [22]
  Activity: Dose-dependent effect
BV-2 [23]
  Activity: Active
BV-2 [24]
  Activity: Active
[1]
  half-life: 3.9 h
[2]
  Tmax: 8 h
[3]
  Cmax: 44.1 ng/mL
[4]
  AUC(0-t): 440 ng·h/mL
[5]
  AUC(0-inf): 453 ng·h/mL
[6]
  Vd: 77 L/kg
[7]
  MRT last at 24 h: 9.2 h
[8]
  CL/F: 296 mL/min/kg
[9]
  bioavailability: 15.1%
[25]
  half-life: 6.3 h
[26]
  Tmax: 4.98 min
[27]
  Cmax: 771 ng/mL
[28]
  AUC(0-t): 1680 ng·h/mL
[29]
  AUC(0-inf): 1760 ng·h/mL
[30]
  Vd: 30.7 L/kg
[31]
  MRT last at 24 h: 5.1 h
[32]
  clearance: 50.1 mL/min/kg
[33]
  concentration at 1.5 h: 84.9 ng/mL
[34]
  Ratio: 9.2 ng/kg
[35]
  Activity: Non-Toxic
[36]
  Activity: Non-Toxic
BV-2 [37]
  Activity: Non-Toxic
In vitro
  Papp at 18 h, 25 ug/ml: 10.9 ×10⁻⁶ cm/s
[18]
  IC50: 8 nM
